In ChEMBL document CHEMBL1147116 (Antimicrob Agents Chemother, 2007):
In brackets after ≈: the same amount, converted by molar mass.

Key:
Streptococcus pneumoniae [1] = experiment: Bactericidal activity against Streptococcus pneumoniae ATCC 49619 at fAUC/MIC of 119 after 24 to 96 hrs in pharmacodynamic model
Streptococcus pneumoniae [2] = experiment: Bactericidal activity against Streptococcus pneumoniae ATCC 49619 with parC S79Y mutation at fAUC/MIC of 37 after 96 hrs in pharmacodynamic model; settings: ATCC 49619, 96 h
[3] = Half life at 150 mg/24 hrs regimen in vitro PK model; assay type: ADME
Streptococcus pneumoniae [4] = experiment: Bactericidal activity against Streptococcus pneumoniae ATCC 49619 at fAUC/MIC of 78 after 24 to 96 hrs in pharmacodynamic model
Streptococcus pneumoniae [5] = experiment: fAUC/MIC ratio of Streptococcus pneumoniae BSP-2443 at 50 mg
Streptococcus pneumoniae [6] = experiment: Bactericidal activity against Streptococcus pneumoniae BSP-2443 at fAUC/MIC of 34 after 24 to 48 hrs in pharmacodynamic model; settings: BSP2443
Streptococcus pneumoniae [7] = experiment: Bactericidal activity against Streptococcus pneumoniae ATCC 49619 at fAUC/MIC of 65.3 after 24 to 96 hrs in pharmacodynamic model
Streptococcus pneumoniae [8] = experiment: fAUC/MIC ratio of Streptococcus pneumoniae BSP-2443 at 75 mg
Streptococcus pneumoniae [9] = experiment: fAUC/MIC ratio of Streptococcus pneumoniae ATCC 49610 at 50 mg
[10] = Peak free concentration at 150 mg/24 hrs regimen in vitro PK model; assay type: ADME
Streptococcus pneumoniae [11] = experiment: fAUC/MIC ratio of Streptococcus pneumoniae BSP-2443 at 100 mg
Streptococcus pneumoniae [12] = experiment: Bactericidal activity against Streptococcus pneumoniae BSP-2443 at fAUC/MIC of 51.3 after 24 to 96 hrs in pharmacodynamic model; settings: BSP2443
Streptococcus pneumoniae [13] = experiment: fAUC/MIC ratio of Streptococcus pneumoniae ATCC 49610 at 75 mg
Streptococcus pneumoniae [14] = experiment: fAUC/MIC ratio of Streptococcus pneumoniae ATCC 49610 at 320 mg
[15] = Half life at 50 mg/24 hrs regimen in vitro PK model; assay type: ADME
[16] = Peak free concentration at 75 mg/24 hrs regimen in vitro PK model; assay type: ADME
[17] = Half life at 75 mg/24 hrs regimen in vitro PK model; assay type: ADME
Streptococcus pneumoniae [18] = experiment: fAUC/MIC ratio of Streptococcus pneumoniae ATCC 49610 at 250 mg
Streptococcus pneumoniae [19] = experiment: Bactericidal activity against Streptococcus pneumoniae ATCC 49619 at fAUC/MIC of 50.5 after 24 to 96 hrs in pharmacodynamic model
[20] = Peak free concentration at 250 mg/24 hrs regimen in vitro PK model; assay type: ADME
Streptococcus pneumoniae [21] = experiment: fAUC/MIC ratio of Streptococcus pneumoniae ATCC 49619 at 150 mg
Streptococcus pneumoniae [22] = experiment: Bactericidal activity against Streptococcus pneumoniae BSP-2443 at fAUC/MIC of 60.2 after 24 to 96 hrs in pharmacodynamic model; settings: BSP2443
Streptococcus pneumoniae [23] = experiment: Susceptibility of Streptococcus pneumoniae BSP-2443 by microdilution method; assay type: functional; settings: BSP2443
[24] = Peak free concentration at 320 mg/24 hrs regimen in vitro PK model; assay type: ADME
Streptococcus pneumoniae [25] = experiment: Bactericidal activity against Streptococcus pneumoniae ATCC 49619 at fAUC/MIC of 37 after 24 to 48 hrs in pharmacodynamic model
[26] = Half life at 100 mg/24 hrs regimen in vitro PK model; assay type: ADME
[27] = Peak free concentration at 50 mg/24 hrs regimen in vitro PK model; assay type: ADME
Streptococcus pneumoniae [28] = experiment: Susceptibility of Streptococcus pneumoniae ATCC 49619 by microdilution method; assay type: functional
Streptococcus pneumoniae [29] = experiment: Bactericidal activity against Streptococcus pneumoniae ATCC 49619 with parC S79Y mutation at fAUC/MIC of 37 after 72 hrs in pharmacodynamic model; settings: ATCC 49619, 72 h
Streptococcus pneumoniae [30] = experiment: Bactericidal activity against Streptococcus pneumoniae BSP-2443 with parC S79Y, S52G, N91D mutation and gyrA S114G mutation at fAUC/MIC of 34 after 72 to 96 hrs in pharmacodynamic model; settings: BSP2443
Streptococcus pneumoniae [31] = experiment: fAUC/MIC ratio of Streptococcus pneumoniae ATCC 49619 at 100 mg
[32] = Peak free concentration at 100 mg/24 hrs regimen in vitro PK model; assay type: ADME
[33] = Half life at 320 mg/24 hrs regimen in vitro PK model; assay type: ADME
[34] = Half life at 250 mg/24 hrs regimen in vitro PK model; assay type: ADME
Streptococcus pneumoniae [35] = experiment: Bactericidal activity against Streptococcus pneumoniae ATCC 49619 at fAUC/MIC of 146 after 24 to 96 hrs in pharmacodynamic model

CO/N=C1\CN(c2nc3c(cc2F)c(=O)c(C(=O)O)cn3C2CC2)CC1CN (stereo not given) [GEMIFLOXACIN]
MIC (Streptococcus pneumoniae [1]): 0.03 µg/mL
MIC (Streptococcus pneumoniae [2]): 0.25 µg/mL
half-life [3]: 7.5 h
MIC (Streptococcus pneumoniae [4]): 0.03 µg/mL
fAUC/MIC (Streptococcus pneumoniae [5]): 34
MIC (Streptococcus pneumoniae [6]): 0.03 µg/mL
MIC (Streptococcus pneumoniae [7]): 0.03 µg/mL
fAUC/MIC (Streptococcus pneumoniae [8]): 51.3
fAUC/MIC (Streptococcus pneumoniae [9]): 37
Activity [10]: 0.31 µg/mL
fAUC/MIC (Streptococcus pneumoniae [11]): 69.2
MIC (Streptococcus pneumoniae [12]): 0.03 µg/mL
fAUC/MIC (Streptococcus pneumoniae [13]): 50.5
fAUC/MIC (Streptococcus pneumoniae [14]): 146
half-life [15]: 7.45 h
Activity [16]: 0.17 µg/mL
half-life [17]: 7.19 h
fAUC/MIC (Streptococcus pneumoniae [18]): 119
MIC (Streptococcus pneumoniae [19]): 0.03 µg/mL
Activity [20]: 0.51 µg/mL
fAUC/MIC (Streptococcus pneumoniae [21]): 78
MIC (Streptococcus pneumoniae [22]): 0.03 µg/mL
MIC (Streptococcus pneumoniae [23]): 0.025 µg/mL (≈ 0.0642 µM)
Activity [24]: 0.62 µg/mL
MIC (Streptococcus pneumoniae [25]): 0.03 µg/mL
half-life [26]: 8.22 h
Activity [27]: 0.12 µg/mL
MIC (Streptococcus pneumoniae [28]): 0.025 µg/mL (≈ 0.0642 µM)
MIC (Streptococcus pneumoniae [29]): 0.25 µg/mL
MIC (Streptococcus pneumoniae [30]): 0.125 µg/mL
fAUC/MIC (Streptococcus pneumoniae [31]): 65.3
Activity [32]: 0.23 µg/mL
half-life [33]: 7.58 h
half-life [34]: 7.22 h
MIC (Streptococcus pneumoniae [35]): 0.03 µg/mL
